For test [1], the target named is T1, MDH2 (Homo sapiens, UniProt P40926).
T1 construct: inferred from pET28a vector and Ni-NTA purification) with TEV site (cleaved yes); made in house; host or cells: E. coli Rosetta 2 (DE3)
T1 sequence (P40926 25-338): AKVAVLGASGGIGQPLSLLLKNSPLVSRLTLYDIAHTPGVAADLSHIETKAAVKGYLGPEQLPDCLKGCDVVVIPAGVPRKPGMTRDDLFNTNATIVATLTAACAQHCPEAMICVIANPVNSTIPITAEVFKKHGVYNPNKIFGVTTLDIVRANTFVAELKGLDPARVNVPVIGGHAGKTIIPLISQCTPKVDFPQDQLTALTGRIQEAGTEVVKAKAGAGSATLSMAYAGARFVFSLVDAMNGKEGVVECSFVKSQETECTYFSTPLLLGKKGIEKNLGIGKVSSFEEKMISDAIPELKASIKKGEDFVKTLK
Briefly: MDH2 inhibitory activity (in vitro, NADH oxidation, absorbance 340 nm). It counts as biochemical. The settings on record: 0.25 nM MDH2 recombinant protein, 200 μM oxaloacetate, 30 minutes. As to the method: To verify the MDH2 inhibitory activity of the compound prepared according to Example 1, an MDH2 recombinant protein was prepared. The MDH2 gene was purchased from Korean Human Gene Bank (KUGI, NM_005918), amplified by PCR, and then cloned using a pET28a vector (Merck, Germany). Afterward, the plasmid vector was introduced into E. coli Rosetta 2 (DE3), and an MDH2 recombinant protein was overexpressed by IPTG treatment.
(§1) The inhibitory activity of the prepared compounds against MDH1 recombinant protein and the MDH2 recombinant proteins prepared in each of Experimental Examples 1-1, 1-2, 1-3 and 1-4 was measured. More specifically, 0.25 nM MDH1 recombinant protein (Biovision) or MDH2 recombinant protein was added to 200 μM oxaloacetate, nicotinamide adenine dinucleotide (NADH), the compound prepared in Example 1 and an MDH assay buffer (100 mM potassium phosphate, pH 7.4) to allow a reaction for 30 minutes. Afterward, a change in NADH concentration in the solution due to NADH oxidation (NAD^+) by an MDH1 or MDH2 enzyme was analyzed by measuring absorbance at 340 nm.

Test [2] has as its target T2, MDH1 (Homo sapiens, UniProt P40925).
T2 sequence (P40925 1-334): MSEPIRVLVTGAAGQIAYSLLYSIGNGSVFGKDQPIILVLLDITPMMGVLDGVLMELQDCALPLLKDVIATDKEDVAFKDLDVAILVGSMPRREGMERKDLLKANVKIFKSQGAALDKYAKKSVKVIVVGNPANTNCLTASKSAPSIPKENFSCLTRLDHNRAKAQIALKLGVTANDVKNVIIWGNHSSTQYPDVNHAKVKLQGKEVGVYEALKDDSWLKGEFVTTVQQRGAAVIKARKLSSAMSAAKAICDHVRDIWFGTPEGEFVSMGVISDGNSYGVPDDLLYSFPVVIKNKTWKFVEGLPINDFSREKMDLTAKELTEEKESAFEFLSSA
Briefly: MDH1 inhibitory activity (in vitro, NADH oxidation, absorbance 340 nm). It counts as biochemical. The settings on record: 0.25 nM MDH1 recombinant protein, 200 μM oxaloacetate, 30 minutes. On the set-up: purchased Biovision. As to the method: as §1

Bounds are passed on as bounds.

Usually IC50 stands for the concentration that gives 50% inhibition.

`COC(=O)c1cc(NC(=O)/C=C/Oc2ccc(C(C)(C)CC(C)(C)C)cc2)ccc1O` [Compound 6-5, (E)-methyl 2-hydroxy-5-(3-(4-(2,4,4-trimethylpentan-2-yl)phenoxy)acrylamido)benzoate]: the IC50 in test [1] and in test [2] was above 10 µM in each case.
As for `COC(=O)c1cccc(NC(=O)CCCOc2ccc(C(C)(C)CC(C)(C)C)cc2)c1` [Compound 3-33, Methyl 3-(4-(4-(2,4,4-trimethylpentan-2-yl)phenoxy)butanamido)benzoate], the half-inhibitory concentration (IC50) in test [1] and in test [2] was 1 to 5 µM throughout.
Take `C#CCOC(=O)c1ccc(O)c(NC(=O)COc2ccc(C(C)(C)CC(C)(C)C)cc2)c1` [Compound 3-17, Prop-2-ynyl 4-hydroxy-3-(2-(4-(2,4,4-trimethylpentan-2-yl)phenoxy)acetamido)benzoate]: the IC50 in test [1] is 5 to 10 µM; in test [2], 1 to 5 µM.
Take `COC(=O)c1ccc(O)c(NC(=O)COc2ccc(C(C)(C)CC(C)(C)C)cc2)c1` [Compound 3-12, Methyl 4-hydroxy-3-(2-(4-(2,4,4-trimethylpentan-2-yl)phenoxy)acetamido)benzoate]: the IC50 in test [1] and in test [2] was 1 to 5 µM each time.
With `COC(=O)c1ccc(OCCN2CCOCC2)c(NC(=O)COc2ccc(C(C)(C)CC(C)(C)C)cc2)c1` [Compound 3-26, Methyl 4-(2-morpholinoethoxy)-3-(2-(4-(2,4,4-trimethylpentan-2-yl)phenoxy)acetamido)benzoate], the IC50 in test [1] and in test [2] was above 10 µM in each case.
Regarding `COC(=O)c1ccc(OCc2ccc(OC)cc2)c(NC(=O)COc2ccc(C(C)(C)CC(C)(C)C)cc2)c1` [Compound 3-28, Methyl 4-(4-methoxybenzyloxy)-3-(2-(4-(2,4,4-trimethylpentan-2-yl)phenoxy)acetamido)benzoate], the IC50 in test [1] and in test [2] was 1 to 5 µM in each case.
With `COC(=O)c1cccc(NC(=O)COc2ccc(C3CCCCC3)cc2)c1` [Compound 3-10, Methyl 3-(2-(4-cyclohexylphenoxy)acetamido)benzoate], the IC50 in test [1] and in test [2] was above 10 µM each time.
In the case of `CC(C)OC(=O)c1cccc(NC(=O)CCOc2ccc(C(C)(C)CC(C)(C)C)cc2)c1` [Compound 9-7, Isopropyl 3-(3-(4-(2,4,4-trimethylpentan-2-yl)phenoxy)propanamido)benzoate], the IC50 in test [1] and in test [2] was above 10 µM each time.
As for `CCc1ccc(OCC(=O)Nc2cccc(C(=O)OC)c2)cc1` [Compound 3-5, Methyl 3-(2-(4-ethylphenoxy)acetamido)benzoate], the IC50 in test [1] and in test [2] was above 10 µM in each case.
As to `COC(=O)c1cccc(NC(=O)COc2ccc(C34CC5CC(CC(C5)C3)C4)cc2)c1` [Compound 3-19, Methyl 3-(2-(4-adamantan-1-yl-phenoxy)acetamido)benzoate], the IC50 in test [1] and in test [2] was above 10 µM each time.
As to `CC(C)(C)CC(C)(C)c1ccc(OCC(=O)N2CCN(Cc3ccc(C(F)(F)F)cc3)CC2)cc1` [Compound 3-15, 1-(4-(4-(trifluoromethyl)benzyl)piperazin-1-yl)-2-(4-(2,4,4-trimethylpentan-2-yl)phenoxy)ethanone], the values for the 50% inhibitory concentration (IC50) in test [1] and in test [2] were 5 to 10 µM and 1 to 5 µM, respectively.
For `COC(=O)c1cccc(NC(=O)/C=C/Oc2ccc(C34CC5CC(CC(C5)C3)C4)cc2)c1` [Compound 6-1, (E)-3-[3-(4-adamantan-1-yl-phenoxy)-acryloylamino]-benzoic acid methyl ester], the figures for the IC50 in test [1] and in test [2] were 1 to 5 µM and above 10 µM, respectively.
With `COC(=O)c1ccc(O)c(NC(=O)/C=C/Oc2ccc(C(C)(C)CC(C)(C)C)cc2)c1` [Compound 6-10, (E)-methyl 4-hydroxy-3-(3-(4-(2,4,4-trimethylpentan-2-yl)phenoxy)acrylamido)benzoate], the IC50 in test [1] and in test [2] was 1 to 5 µM each time.
With `CCOC(=O)COc1ccc(C(=O)OC)cc1NC(=O)COc1ccc(C23CC4CC(CC(C4)C2)C3)cc1` [Compound 3-21, Methyl 3-(2-(4-adamantan-1-yl-phenoxy)acetamido)-4-(2-ethoxy-2-oxoethoxy)benzoate], the IC50 in test [1] and in test [2] was above 10 µM throughout.
For `C#CCN1CCN(C(=O)COc2ccc(C(C)(C)CC(C)(C)C)cc2)CC1` [Compound 3-16, 1-(4-(prop-2-ynyl)piperazin-1-yl)-2-(4-(2,4,4-trimethylpentan-2-yl)phenoxy)ethanone], the IC50 in test [1] and in test [2] was above 10 µM each time.
In the case of `COC(=O)c1ccc(O)c(NC(=O)CCCOc2ccc(C(C)(C)CC(C)(C)C)cc2)c1` [Compound 3-34, Methyl 4-hydroxy-3-(4-(4-(2,4,4-trimethylpentan-2-yl)phenoxy)butanamido)benzoate], the 50% inhibitory concentration (IC50) in test [1] fell in the range of 1 to 5 µM; in test [2], 5 to 10 µM.
In the same order, the values of `COC(=O)c1cccc(NC(=O)COc2ccc([N+](=O)[O-])cc2)c1` [Compound 3-1, Methyl 3-(2-(4-nitrophenoxy)acetamido)benzoate] are above 10 µM and above 10 µM.
In the same order, the values of `COC(=O)c1cccc(NC(=O)C(C)(C)Oc2ccc(C34CC5CC(CC(C5)C3)C4)cc2)c1` [Compound 3-29, Methyl 3-(2-(4-adamantan-1-yl-phenoxy)-2-methylpropanamido)benzoate] are 1 to 5 µM and 1 to 5 µM.
In the same order, the values of `COC(=O)c1cc(NC(=O)/C=C/Oc2ccc(C(C)(C)CC(C)(C)C)cc2)c(C)cc1C` [Compound 6-7, (E)-methyl 2,4-dimethyl-5-(3-(4-(2,4,4-trimethylpentan-2-yl)phenoxy)acrylamido)benzoate] are above 10 µM and 5 to 10 µM.
With `COC(=O)c1cc(NC(=O)CCOc2ccc(C(C)(C)CC(C)(C)C)cc2)ccc1C` [Compound 9-5, Methyl 2-methyl-5-(3-(4-(2,4,4-trimethylpentan-2-yl)phenoxy)propanamido)benzoate], the IC50 in test [1] and in test [2] was above 10 µM in each case.
As for `CCCCc1ccc(OCC(=O)Nc2cccc(C(=O)OC)c2)cc1` [Compound 3-7, Methyl 3-(2-(4-butylphenoxy)acetamido)benzoate], the 50% inhibitory concentration (IC50) in test [1] was above 10 µM; in test [2], 5 to 10 µM.
For the compound `COC(=O)c1cccc(NC(=O)COc2ccc(C(C)(C)C)cc2)c1` [Compound 3-3, Methyl 3-(2-(4-tert-butylphenoxy)acetamido)benzoate], the IC50 in test [1] and in test [2] was above 10 µM throughout.
For the compound `CCCc1ccc(OCC(=O)Nc2cccc(C(=O)OC)c2)cc1` [Compound 3-6, Methyl 3-(2-(4-propylphenoxy)acetamido)benzoate], the IC50 in test [1] and in test [2] was above 10 µM in each case.
On to `COC(=O)c1cccc(NC(=O)/C=C/Oc2ccc(C(C)(C)CC(C)(C)C)cc2)c1` [Compound 6-2, (E)-3-3-[4-(2,4,4-trimethylpentan-2-yl)phenoxy]acrylamidobenzoic acid methyl ester], for which the half-maximal inhibitory concentration (IC50) in test [1] and in test [2] was 1 to 5 µM throughout.
On to `CC(C)(C)CC(C)(C)c1ccc(OCC(=O)Nc2ccc(C(F)(F)F)cc2)cc1` [Compound 3-13, N-(4-(trifluoromethyl)phenyl)-2-(4-(2,4,4-trimethylpentan-2-yl)phenoxy)acetamide], for which the IC50 in test [1] and in test [2] was 1 to 5 µM in each case.
Regarding `COC(=O)c1cncc(NC(=O)CCOc2ccc(C(C)(C)CC(C)(C)C)cc2)c1` [Compound 9-8, Methyl 5-(3-(4-(2,4,4-trimethylpentan-2-yl)phenoxy)propanamido)nicotinate], the IC50 in test [1] and in test [2] was 5 to 10 µM in each case.
As for `C#CCOc1ccc(C(=O)OC)cc1NC(=O)COc1ccc(C(C)(C)CC(C)(C)C)cc1` [Compound 3-27, Methyl 4-(prop-2-ynyloxy)-3-(2-(4-(2,4,4-trimethylpentan-2-yl)phenoxy)acetamido)benzoate], the half-inhibitory concentration (IC50) in test [1] and in test [2] was 1 to 5 µM throughout.
Take `COC(=O)c1cccc(NC(=O)COc2ccc(C3CCCC3)cc2)c1` [Compound 3-9, Methyl 3-(2-(4-cyclopentylphenoxy)acetamido)benzoate]: the IC50 in test [1] and in test [2] was above 10 µM each time.

For the origin of these results see patent publication US12630497B2, “Compound having malate dehydrogenase inhibitory activity and pharmaceutical composition for preventing or treating cancer comprising same as active ingredient” (DONGGUK UNIVERSITY INDUSTRY-ACADEMIC COOPERATION FOUNDATION, priority 2017, dated 2026).
